{"source": "patent USRE50977E1", "about": "“Methods for production of platelets from pluripotent stem cells and compositions thereof” (Astellas Institute for Regenerative Medicine, priority 2012, dated 2026)", "key": {"[1]": {"tested_on": "GATA1 gene expression", "assay": "Q-PCR of GATA1 in MKPs treated with iBET151", "type": "cell-based, human", "conditions": "0.1 and 0.25 μM", "experimental": "(§1) As also described above in Example 10, we therefore determined whether suppression of c-myc expression would enhance MK lineage differentiation/expansion and simultaneously prohibit myeloid and other lineage differentiation/expansion. MKP Day 6+3 cultures were treated with non-cytotoxic doses of a c-myc inhibitor, iBET151 (0.1 and 0.25 μM) for 24 hours and then harvested for analysis. […] CD14+ myeloid cells were decreased from about 12% in control cultures to less than 5% and 3% in cultures treated with iBET151 at 0.1 and 0.25 μM, respectively."}, "[2]": {"tested_on": "cells undergoing in vitro megakaryopoiesis", "assay": "iBET151 treatment of MKP Day 6+3 cultures", "type": "cell-based, human", "conditions": "for increase of MKP outputs vs untreated controls: 24 hours; for CD14+ myeloid cells: D6+3 to D6+4, control about 12%; for number/formation of CD14+ myeloid cells: 0.1 and 0.25 μM", "experimental": "To promote early MK progenitor production, cells were cultured in MK-Specific Progenitor Expansion medium (EXP-M) containing STEMdiff APEL Medium+TPO (25 ng/ml), SCF (25 ng/ml), Flt-3 ligand (25 ng/ml), IL-3 (10 ng/ml), IL-6 (10 ng/ml) and heparin (5 U/ml) for up to 7 days. Non-adherent MK Progenitors (MKPs) were constantly released into the medium and harvested for 4-5 consecutive days in EXP-M. Daily harvests were cryo-preserved in animal protein-free defined cryopreservation CryoStor™ medium. Samples of MKPs were also subjected to flow cytometry for analysis of CD41a, CD42b, CD31, CD34, CD43, CD13, CD235a, and CD14 cell surface expression.\nas §1"}, "[3]": {"tested_on": "human and murine MLL-fusion leukemic cell lines", "conditions": "induction of early cell cycle arrest and apoptosis; cited from earlier work"}, "[4]": {"tested_on": "c-myc gene expression", "assay": "Q-PCR of MYC in MKPs treated with iBET151", "type": "cell-based, human", "conditions": "0.1 and 0.25 μM", "experimental": "as §1"}, "[5]": {"tested_on": "iPS derived megakaryocytes", "assay": "Platelet formation in static culture with MMP inhibitors", "type": "cell-based, human", "conditions": "for protection of platelets (CD42b shedding) compared with GM6001: comparative study of specific MMP inhibitors", "experimental": "The peak of platelet production is determined by measuring platelet content in the culture, for example on a daily basis for several days. It is typically 4-7 days after the beginning of the MLP differentiation culture period, although it may be longer or it may be shifted. To induce MK maturation and platelet formation, freshly collected or thawed MKPs were cultured in MK maturation medium (MK-M) containing […]+TPO, SCF, IL-6 and […] Megakaryocyte Expansion Supplement) and heparin (5 U/ml) in ultralow attachment plates (Corning). 5 μM of Y-27632 was added for the first 3 days of culture, and cells were incubated in 7% CO2 at 39° C. Cell morphology and density were monitored daily and fresh medium was added to maintain 10^6 cells/ml for the first 4 days. The maturation of MKs from MKPs was monitored using flow cytometric analysis of CD41a, CD42b, and CD235a. Once pro-platelet morphology was observed, medium samples were taken daily to determine platelet yield using CD41a/CD42b double staining by flow cytometric analysis. Platelets were collected for 3-5 consecutive days during the peak of production. To extract platelets, large MKs were removed first using low speed centrifugation (50×g for 10 min), and proplatelets and small MKs were removed by further 10 min centrifugation at 300×g. The iPS-platelets in the supernatants were collected using higher g force (1000-2500×g) in the presence of PGE1 (1 μM). The collected iPS-platelet pellets were then subjected to further purification using a BSA gradient centrifugation as described previously (Robert et al., 2012). Briefly, iPS-platelet pellets were re-suspended with 1× CGS buffer. Platelets were applied in the buffer on top of a BSA gradient with BSA concentration of (weight/volume) of 12, 10, 7, 5 and 2%. The sample was centrifuged at 82×g for 15 min with no break, then the platelet-rich fraction was collected. iPS-platelets purified from BSA gradient were stored or transported at room temperature in MK-M for further analyses."}, "[6]": {"tested_on": "MKs derived from HA-iPS", "assay": "Platelet generation under constant shear force in microfluidic device, HA-iPS derived MKs", "type": "cell-based, human", "experimental": "Matured MKs, derived from HA-iPS and MA09 hES lines, were used. Equal numbers of MKs suspended in MK-specific medium were loaded into a microfluidic device in the presence or absence of 20 μM MMP inhibitor GM6001. Constant shear force was applied to the MKs throughout the culture period. MK-medium downstream of MKs was collected at 30 minute intervals for a period of 6 hours. Platelet number and purity (i.e., percentage of total cells that are CD41a^+CD42b^+) in the collected media were measured using flow cytometer."}, "[7]": {"conditions": "constant shear force, 20 μM added at beginning of culture, vs DMSO"}}}
{"smiles": "COc1cc2c(cc1-c1c(C)noc1C)ncc1[nH]c(=O)n([C@H](C)c3ccccn3)c12", "note": "[iBET151]", "values": [{"measurement": "GATA1 mRNA expression", "setting": "[1]", "value": "up-regulation"}, {"measurement": "GATA1 mRNA expression", "setting": "[1]; listed as i-BET-151", "value": "up-regulated"}, {"measurement": "increase of MKP outputs vs untreated controls", "setting": "[2]; 0.1 μM", "value": "≈ 2 fold"}, {"measurement": "CD14+ myeloid cells", "setting": "[2]; 0.1 μM", "value": "less than 5%"}, {"measurement": "increase of MKP outputs vs untreated controls", "setting": "[2]; 0.25 μM", "value": "~4", "unit": "fold"}, {"measurement": "CD14+ myeloid cells", "setting": "[2]; 0.25 μM", "value": "< 3", "unit": "%"}, {"measurement": "number/formation of CD14+ myeloid cells", "setting": "[2]", "value": "inhibited"}, {"measurement": "number/formation of CD14+ myeloid cells", "setting": "[2]; listed as i-BET-151", "value": "dose-dependent decrease"}, {"measurement": "apoptosis", "setting": "[2]; high dose", "value": "massive apoptosis"}, {"measurement": "numbers of MK progenitors", "setting": "[2]; lower doses, micromolar or submicromolar range", "value": "increased numbers of MK progenitors"}, {"measurement": "efficacy against leukemic cell lines", "setting": "[3]", "value": "profound efficacy"}, {"measurement": "c-myc (MYC) mRNA expression", "setting": "[4]", "value": "dose-dependent downregulation"}, {"measurement": "c-myc (MYC) mRNA expression", "setting": "[4]; listed as i-BET-151", "value": "dose-dependent inhibition"}]}
{"smiles": "CNC(=O)[C@H](Cc1c[nH]c2ccccc12)NC(=O)[C@@H](CC(=O)NO)CC(C)C", "note": "[GM6001]", "values": [{"measurement": "CD41b+/CD42b+ platelets", "setting": "[5]; added in MK culture, control 45%", "value": 59, "unit": "%"}, {"measurement": "platelet purity (percentage CD41a+CD42b+)", "setting": "[6]; [7]", "value": "significantly improved"}, {"measurement": "platelet yield", "setting": "[6]; [7]", "value": "significantly improved"}, {"measurement": "platelet numbers as a function of time", "setting": "[6]; shear force culture, FIG. 23", "value": "significantly more platelets were generated"}]}
{"smiles": "COc1ccc(S(=O)(=O)N2Cc3ccccc3C[C@@H]2C(=O)NO)cc1", "note": "[MMP8-I, (3R)-(+)-[2-(4-Methoxybenzenesulfonyl)-1,2,3,4-tetrahydroisoquinoline-3-hydroxamate]]", "values": [{"measurement": "total number of CD41a+CD42b+ platelets, increase vs control", "setting": "[5]; MK culture", "value": "~ 46%"}, {"measurement": "protection of platelets (CD42b shedding) compared with GM6001", "setting": "[5]", "value": "superior shedding protection than GM"}, {"measurement": "protection of platelets (CD42b shedding) compared with GM6001", "setting": "[5]; listed as MMP8 inhibitor", "value": "more potency than GM6001"}, {"measurement": "CD41a+CD42b+ platelets produced as compared to GM6001", "setting": "[5]; static culture", "value": "Significantly more"}, {"measurement": "purity gain over GM6001-treated cultures", "setting": "[5]; static culture", "value": "approximately 10%"}, {"measurement": "purity of iPS-derived platelets", "setting": "[5]; static culture, added at the peak of platelet production, control 43.7%", "value": 65.5, "unit": "%"}]}
